Laboratory results from patent publication US10202399B2, “Dihydroxy aromatic heterocyclic compound” (Takeda Pharmaceutical Company Limited, priority 2011, dated 2019).

What was measured:
[1] = biological target: recombinant human DAAO protein (Homo sapiens (Human), UniProt P14920); experiment: DAAO inhibitory activity test (H2O2/Amplex red fluorescence); format: biochemical; conditions: D-alanine substrate, Amplex red fluorescence
Description: The DAAO inhibitory activity was measured by assaying the amount of hydrogen peroxide (H2O2) produced by reacting DAAO protein with flavin adenine dinucleotide (FAD) and D-alanine. The amount of H2O2 was determined by measuring the fluorescence generated on conversion of Amplex red (manufactured by Invitrogen Co.) into resorufin by the reaction of H2O2 with horseradish peroxidase (HRP).
Escherichia coli strain BL21(DE3) (manufactured by Novagen) was transformed with the constructed human DAAO expression vector, inoculated into LB culture medium containing kanamycin at a final concentration of 20 μg/mL, and shake-cultured at 37° C. overnight. The multiplied transformant was inoculated into Terrific Broth containing kanamycin at a final concentration of 20 μg/mL, and shake-cultured at 37° C. until it reached OD600=3.0. Thereafter, the culture was cooled to 30° C., and expression was induced with 1 mM IPTG. After 20 hours, bacterial pellets were recovered by centrifugation.
The bacterial pellets recovered as above were suspended in a lysis buffer (17 mM sodium pyrophosphate buffer pH 8.3, 100 μM FAD, 1 mM sodium benzoate, 1 mM PMSF, 14 mM β-mercaptoethanol, 0.2 mg/mL lysozyme) and the bacteria were fractured by sonication. The sonicated liquid was centrifuged and the supernatant was recovered. […]

[2] = biological target: HEK293 cells that stably express human DAAO (Homo sapiens (Human), UniProt P14920); experiment: Inhibitory activity test at cellular level using DAAO-expressing cells; format: cell-based
Description: HEK293 cells that stably express human DAAO were suspended in Cellbanker solution at 5×10^6 cells/ml and cryopreserved at −80° C. At the time of measurement, the cells were centrifuged at 1000 rpm for one min and the Cellbanker solution was removed. […] A 4% DMSO buffer solution (50 mM sodium phosphate [pH 7.5], 0.02% CHAPS) of the test compound (4 μL) was added to a 384-well black, low volume plate, the cell suspension (4 μL) was added, and the mixture was incubated at room temperature for 15 min.
Reverse transcription was performed on human normal kidney tissue-derived RNA (Clontech Corp.) using reverse transcriptase (SuperScriptIII, Life Technologies Corporation) and oligo (dT) primer (Life Technologies Corporation) according to the protocol of the kit (Life Technologies Corporation) and cDNA was synthesized. Then, using human DAAO_HindIII_F represented by Sequence No. 1 and human DAAO_BamHI_R represented by Sequence No. 2, a PCR reaction (35 cycles of 98° C. for 15 sec, 55° C. for 15 sec and 68° C. for 1 min 30 sec) was performed using DNA polymerase (PrimeSTAR, TAKARA BIO INC.) and cDNA obtained as above as a template. […] The PCR product was cloned in a cloning vector (pCR2.1-TOPO Cloning Kit, Life Technologies Corporation). The sequence of the insert was determined by the dideoxy sequence method (BigDye Terminator v3.1 Cycle Sequencing Kit; Life Technologies Corporation). […]

SMILES: O=c1[nH]nc(COc2ccc(Cl)cc2)cc1O [Example 254]
- IC50 [1]: 2.7 nM
- IC50 [2]: 6.3 nM
